US8865623B2, “Herbicidally active cyclic diones and derivatives thereof, processes for their preparation, compositions, and method of controlling weeds” (Syngenta Limited, priority 2009, dated 2014)

Assays:
Assay type in all cases: in vivo
[1] = tested on: Alopecurus myosuroides (ALOMY); experiment: Pre-emergence herbicidal activity, glasshouse pot test; conditions: Alopecurus myosuroides, 312 h; Rate 250 g/ha; pre-emergence spray; evaluated after 13 days; read-out: Pre-emergence activity ALOMY (100=total damage to plant; 0=no damage to plant)
Method in brief: (§1)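 Herbicide damage scored 0–100 at 13 d. Pre-emergence: spray 1 d after sowing; post-emergence: spray after 8 d growth. Formulation acetone/water 50:50, 0.5% Tween 20, aqueous spray.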

[2] = tested on: Avena fatua (AVEFA); experiment: as above; conditions: Avena fatua, 312 h; Rate 250 g/ha; pre-emergence spray; evaluated after 13 days; read-out: Pre-emergence activity AVEFA (100=total damage to plant; 0=no damage to plant)
Method in brief: as §1

[3] = tested on: Echinochloa crus-galli (ECHCG); experiment: as above; conditions: Echinochloa crus-galli, 312 h; Rate 250 g/ha; pre-emergence spray; evaluated after 13 days; read-out: Pre-emergence activity ECHCG (100=total damage to plant; 0=no damage to plant)
Method in brief: as §1

[4] = tested on: Lolium perenne (LOLPE); experiment: as above; conditions: Lolium perenne, 312 h; Rate 250 g/ha; pre-emergence spray; evaluated after 13 days; read-out: Pre-emergence activity LOLPE (100=total damage to plant; 0=no damage to plant)
Method in brief: as §1

[5] = tested on: Alopecurus myosuroides (ALOMY); experiment: Post-emergence herbicidal activity, glasshouse pot test; conditions: Alopecurus myosuroides, 312 h, rate 250 g/ha, evaluated after 13 days, glasshouse, read-out: Post-emergence activity ALOMY (100=total damage to plant; 0=no damage to plant)
Method in brief: as §1

[6] = tested on: Avena fatua (AVEFA); experiment: as above; conditions: Avena fatua, 312 h, rate 250 g/ha, evaluated after 13 days, glasshouse, read-out: Post-emergence activity AVEFA (100=total damage to plant; 0=no damage to plant)
Method in brief: as §1

[7] = tested on: Echinochloa crus-galli (ECHCG); experiment: as above; conditions: Echinochloa crus-galli, 312 h, rate 250 g/ha, evaluated after 13 days, glasshouse, read-out: Post-emergence activity ECHCG (100=total damage to plant; 0=no damage to plant)
Method in brief: as §1

[8] = tested on: Lolium perenne (LOLPE); experiment: as above; conditions: Lolium perenne, 312 h, rate 250 g/ha, evaluated after 13 days, glasshouse, read-out: Post-emergence activity LOLPE (100=total damage to plant; 0=no damage to plant)
Method in brief: as §1

| Compound | pest or weed control at 250 g/ha [1] [%] | pest or weed control at 250 g/ha [2] [%] | pest or weed control at 250 g/ha [3] [%] | pest or weed control at 250 g/ha [4] [%] | pest or weed control at 250 g/ha [5] [%] | pest or weed control at 250 g/ha [6] [%] | pest or weed control at 250 g/ha [7] [%] | pest or weed control at 250 g/ha [8] [%] |
| --- | --- | --- | --- | --- | --- | --- | --- | --- |
| CCc1ccc(Oc2ccc(C#N)c(Cl)c2)cc1C1=C(O)[C@H]2CC[C@H](C2)C1=O [Example A-330] | 80 | 80 | 100 | 100 | 70 | 80 | 100 | 70 |
| CCc1ccc(Oc2ncc(Br)cn2)cc1C1=C(O)CC2(CCOCC2)CC1=O [Example A-310] | 100 | 50 | 100 | 70 | 100 | 80 | 100 | 90 |
| CCc1ccc(Oc2ccc(Cl)c(C(F)(F)F)c2)cc1C1=C(O)C(C)(C)OC(C)(C)C1=O [Example A-183] | 30 | 20 | 60 | 80 | 70 | 50 | 90 | 40 |
| CCc1ccc(Oc2ccc(Cl)cc2)cc1C1=C(O)CC2(CCOCC2)CC1=O [Example A-36] | 90 | 90 | 100 | 90 | 100 | 100 | 100 | 90 |
| CCc1ccc(Oc2nc3ccc([N+](=O)[O-])cc3s2)cc1C1=C(O)CC(C)(C)CC1=O [Example A-299] | 50 | 20 | 100 | 100 | 90 | 90 | 100 | 80 |
| CCc1ccc(Oc2ccc(C(F)(F)F)cc2Cl)cc1C1=C(O)[C@@H]2CC[C@](C)(C1=O)C2(C)C [Example A-314] | 30 | 20 | 100 | 100 | 40 | 70 | 100 | 70 |
| CCc1ccc(Oc2ccc(Cl)cc2F)cc1C1=C(O)CCCC1=O [Example A-38] | 50 | 10 | 70 | 70 | 20 | 30 | 80 | 30 |
| CCc1ccc(Oc2ncc(Br)cn2)cc1C1=C(O)C(C)(C)OC(C)(C)C1=O [Example A-109] | 80 | 70 | 100 | 80 | 90 | 90 | 100 | 90 |
| CC1(C)OC(C)(C)C(O)=C(c2cc(Oc3ccc(Cl)cc3)ccc2OC(F)(F)F)C1=O [Example A-302] | 10 | 40 | 60 | 20 | 60 | 50 | 100 | 70 |
